Measurements as given in US7371766B2, “Curcumin analogs with anti-tumor and anti-angiogenic properties” (Emory University, priority 1999, dated 2008).

Tests used:
RPMI-8226 = conditions: 48 hours
HOP-62 = conditions: 48 hours
NCI-H226 = conditions: 48 hours
NCI-H522 = conditions: 48 hours
COLO 205 = conditions: 48 hours
HCT-116 = conditions: 48 hours
HCT-15 = conditions: 48 hours
SF-268 = conditions: 48 hours
SNB-75 = conditions: 48 hours
U251 = conditions: 48 hours
M14 = conditions: 48 hours
SK-MEL-2 = conditions: 48 hours
UACC-62 = conditions: 48 hours
IGROV1 = conditions: 48 hours
OVCAR-5 = conditions: 48 hours
OVCAR-8 = conditions: 48 hours
A498 = conditions: 48 hours
CAKI-1 = conditions: 48 hours
RXF 393 = conditions: 48 hours
UO-31 = conditions: 48 hours
MCF-7 = conditions: 48 hours
MDA-MB-231 = conditions: 48 hours
MDA-MB-435 = conditions: 48 hours
BT-549 = conditions: 48 hours
[1] = read-out: Median Growth Inhibitory Concentration (GI50), Leukemia, 48 hours
[2] = read-out: Median Lethal Concentration (LC50), Leukemia, 48 hours, SRB assay
[3] = read-out: Median Growth Inhibitory Concentration (GI50), Melanoma, 48 hours
[4] = read-out: Median Lethal Concentration (LC50), Melanoma, 48 hours, SRB assay
[5] = read-out: Median Growth Inhibitory Concentration (GI50), Breast Cancer, 48 hours
[6] = read-out: Median Lethal Concentration (LC50), Breast Cancer, 48 hours, SRB assay

`O=C1C(=Cc2ccccc2O)COCC1=Cc1ccccc1O` [EF25, 3,5-Bis(2-hyrdoxybenzylidene)tetrahydro4-H-pyran4-one] gave a GI50 (CCRF-CEM; [1]) of 0.3 µM, a CC50 (CCRF-CEM; [2]) greater than 100 µM and a GI50 (RPMI-8226; read-out: Median Growth Inhibitory Concentration (GI50), RPMI-8226, Leukemia) of 0.2 µM. It also gave a CC50 (RPMI-8226; read-out: Median Lethal Concentration (LC50), Leukemia, RPMI-8226, SRB assay) of 70.9 µM, a GI50 (SR; [1]) of 0.2 µM and a CC50 (SR; [2]) of 76.3 µM. It also gave a GI50 (EKVX; read-out: Median Growth Inhibitory Concentration (GI50), Non-Small Cell Lung Cancer, 48 hours) of 1.4 µM, a CC50 (EKVX; read-out: Median Lethal Concentration (LC50), Non-Small Cell Lung Cancer, 48 hours, SRB assay) of 24.2 µM and a GI50 (HOP-62; read-out: Median Growth Inhibitory Concentration (GI50), HOP-62, Non-Small Cell Lung Cancer) of 1.5 µM. For the same molecule, the CC50 (HOP-62; read-out: Median Lethal Concentration (LC50), Non-Small Cell Lung Cancer, HOP-62, SRB assay) was 37.2 µM, the GI50 (NCI-H226; read-out: Median Growth Inhibitory Concentration (GI50), NCI-H226, Non-Small Cell Lung Cancer) was 2.2 µM and the CC50 (NCI-H226; read-out: Median Lethal Concentration (LC50), Non-Small Cell Lung Cancer, NCI-H226, SRB assay) was 58 µM. For the same molecule, the GI50 (NCI-H522; read-out: Median Growth Inhibitory Concentration (GI50), NCI-H522, Non-Small Cell Lung Cancer) was 0.9 µM, the CC50 (NCI-H522; read-out: Median Lethal Concentration (LC50), Non-Small Cell Lung Cancer, NCI-H522, SRB assay) was 14.1 µM and the GI50 (COLO 205; read-out: Median Growth Inhibitory Concentration (GI50), COLO 205, Colon Cancer) was 2 µM. It also gave a CC50 (COLO 205; read-out: Median Lethal Concentration (LC50), Colon Cancer, COLO 205, SRB assay) of 33.4 µM, a GI50 (HCT-116; read-out: Median Growth Inhibitory Concentration (GI50), HCT-116, Colon Cancer) of 0.8 µM and a CC50 (HCT-116; read-out: Median Lethal Concentration (LC50), Colon Cancer, HCT-116, SRB assay) of 11.1 µM. The GI50 (HCT-15; read-out: Median Growth Inhibitory Concentration (GI50), HCT-15, Colon Cancer) was 0.7 µM, the CC50 (HCT-15; read-out: Median Lethal Concentration (LC50), Colon Cancer, HCT-15, SRB assay) was 16.1 µM and the GI50 (SF-268; read-out: Median Growth Inhibitory Concentration (GI50), SF-268, CNS Cancer) was 1.4 µM. The CC50 (SF-268; read-out: Median Lethal Concentration (LC50), CNS Cancer, SF-268, SRB assay) was 43.3 µM, the GI50 (SNB-75; read-out: Median Growth Inhibitory Concentration (GI50), SNB-75, CNS Cancer) was 1.8 µM and the CC50 (SNB-75; read-out: Median Lethal Concentration (LC50), CNS Cancer, SNB-75, SRB assay) was 14 µM. For the same molecule, the GI50 (U251; read-out: Median Growth Inhibitory Concentration (GI50), U251, CNS Cancer) was 0.7 µM, the CC50 (U251; read-out: Median Lethal Concentration (LC50), CNS Cancer, U251, SRB assay) was 5.8 µM and the GI50 (LOX IMVI; [3]) was 0.2 µM. It also gave a CC50 (LOX IMVI; [4]) of 3.6 µM, a GI50 (MALME-3M; [3]) of 1.9 µM and a CC50 (MALME-3M; [4]) of 19.3 µM. It also gave a GI50 (M14; read-out: Median Growth Inhibitory Concentration (GI50), M14, Melanoma) of 1.8 µM, a CC50 (M14; read-out: Median Lethal Concentration (LC50), Melanoma, M14, SRB assay) of 19.4 µM and a GI50 (SK-MEL-2; read-out: Median Growth Inhibitory Concentration (GI50), SK-MEL-2, Melanoma) of 2 µM. It also gave a CC50 (SK-MEL-2; read-out: Median Lethal Concentration (LC50), Melanoma, SK-MEL-2, SRB assay) of 12.6 µM, a GI50 (UACC-62; read-out: Median Growth Inhibitory Concentration (GI50), UACC-62, Melanoma) of 1.7 µM and a CC50 (UACC-62; read-out: Median Lethal Concentration (LC50), Melanoma, UACC-62, SRB assay) of 14.4 µM. The GI50 (IGROV1; read-out: Median Growth Inhibitory Concentration (GI50), IGROV1, Ovarian Cancer) was 0.8 µM, the CC50 (IGROV1; read-out: Median Lethal Concentration (LC50), Ovarian Cancer, IGROV1, SRB assay) was 14.5 µM and the GI50 (OVCAR-5; read-out: Median Growth Inhibitory Concentration (GI50), OVCAR-5, Ovarian Cancer) was 1.7 µM. For the same molecule, the CC50 (OVCAR-5; read-out: Median Lethal Concentration (LC50), Ovarian Cancer, OVCAR-5, SRB assay) was 8.4 µM, the GI50 (OVCAR-8; read-out: Median Growth Inhibitory Concentration (GI50), OVCAR-8, Ovarian Cancer) was 0.8 µM and the CC50 (OVCAR-8; read-out: Median Lethal Concentration (LC50), Ovarian Cancer, OVCAR-8, SRB assay) was 23 µM. For the same molecule, the GI50 (A498; read-out: Median Growth Inhibitory Concentration (GI50), A498, Renal Cancer) was 1.3 µM, the CC50 (A498; read-out: Median Lethal Concentration (LC50), Renal Cancer, A498, SRB assay) was 6 µM and the GI50 (CAKI-1; read-out: Median Growth Inhibitory Concentration (GI50), CAKI-1, Renal Cancer) was 1.8 µM. The CC50 (CAKI-1; read-out: Median Lethal Concentration (LC50), Renal Cancer, CAKI-1, SRB assay) was 53.7 µM, the GI50 (RXF 393; read-out: Median Growth Inhibitory Concentration (GI50), RXF 393, Renal Cancer) was 0.6 µM and the CC50 (RXF 393; read-out: Median Lethal Concentration (LC50), Renal Cancer, RXF 393, SRB assay) was 4.6 µM. The GI50 (UO-31; read-out: Median Growth Inhibitory Concentration (GI50), UO-31, Renal Cancer) was 1.2 µM, the CC50 (UO-31; read-out: Median Lethal Concentration (LC50), Renal Cancer, UO-31, SRB assay) was 68.1 µM and the GI50 (MCF-7; read-out: Median Growth Inhibitory Concentration (GI50), MCF-7, Breast Cancer) was 0.3 µM. For the same molecule, the CC50 (MCF-7; read-out: Median Lethal Concentration (LC50), Breast Cancer, MCF-7, SRB assay) was 44.7 µM, the GI50 (MDA-MB-231; read-out: Median Growth Inhibitory Concentration (GI50), MDA-MB-231, Breast Cancer) was 1.9 µM and the CC50 (MDA-MB-231; read-out: Median Lethal Concentration (LC50), Breast Cancer, MDA-MB-231, SRB assay) was 17.2 µM. The GI50 (HS 578T; [5]) was 5.1 µM, the CC50 (HS 578T; [6]) was 72.3 µM and the GI50 (MDA-MB-435; read-out: Median Growth Inhibitory Concentration (GI50), MDA-MB-435, Breast Cancer) was 1 µM. The CC50 (MDA-MB-435; read-out: Median Lethal Concentration (LC50), Breast Cancer, MDA-MB-435, SRB assay) was 16.3 µM, the GI50 (MDA-N; [5]) was 1 µM and the CC50 (MDA-N; [6]) was 20 µM. For the same molecule, the GI50 (BT-549; read-out: Median Growth Inhibitory Concentration (GI50), BT-549, Breast Cancer) was 1.5 µM, the CC50 (BT-549; read-out: Median Lethal Concentration (LC50), Breast Cancer, BT-549, SRB assay) was 13.6 µM and the GI50 (T-47D; [5]) was 1.3 µM. It also gave a CC50 (T-47D; [6]) of 92.9 µM.
